Data taken from the supplement of paper PMC10883282.

Columns and labels:
Assay in all cases: relative viability vs DMSO control (72 h) (fraction); higher = more viable cells
[1] = test system: SYO-1
Summary of the method: (§1)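 Sarcoma cell lines went into 384-well plates at densities chosen to reach 80–90% confluence. After 24 h, each well received 2.5 µl of serially diluted compound, with source plates running from 10 mM to 0.0002 mM, and the plates were kept 72 h at 37 °C, 5% CO2, alongside 0.1% DMSO vehicle and a 5 µM positive control. Relative viability was derived from ATPLite readings as percent growth and averaged over up to triplicate wells. The data were then rescaled so that 1 stands for full and 0 for none.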

[2] = test system: KHOS-NP
Summary of the method: as §1

[3] = test system: SW684
Summary of the method: as §1

[4] = test system: RD-ES
Summary of the method: as §1

[5] = test system: HT1080
Summary of the method: as §1

O=C1CCc2c(Oc3ccc4c(c3)[C@@H]3[C@H](O4)[C@H]3c3nc4cc(C(F)(F)F)ccc4[nH]3)ccnc2N1 [Lifirafenib]
relative viability
Details | [1] | [2] | [3] | [4] | [5]
0.00017 µM | 0.947 | 1.07 | 1.17 | 0.9742 | 1.09
0.00051 µM | 0.941 | 1.07 | 1.2 | 0.997 | 1.05
0.00152 µM | 0.9369 | 1.07 | 1.18 | 0.98 | 1.046
0.00457 µM | 0.947 | 1.07 | 1.16 | 0.991 | 1.08
0.01372 µM | 0.937 | 1.064 | 1.15 | 1 | 1.07
0.04115 µM | 0.91 | 1.05 | 1.15 | 0.981 | 1.11
0.1235 µM | 0.905 | 1.06 | 1.154 | 0.992 | 1.09
0.3704 µM | 0.823 | 1.07 | 1.22 | 1.04 | 1.09
1.111 µM | 0.666 | 0.8425 | 1.32 | 1.02 | 1.04
3.333 µM | 0.555 | 0.433 | 1.3 | 0.954 | 0.9439
10 µM | 0.437 | 0.321 | 0.936 | 0.822 | 0.491

CNC(=O)c1cccc2cc(Oc3ccnc4cc(OCC5(N)CC5)c(OC)cc34)ccc12 [Lucitanib]
relative viability
Details | [1] | [2] | [3] | [4] | [5]
0.00017 µM | 1.03 | 1.103 | 1.14 | 0.984 | 1.08
0.00051 µM | 1.04 | 1.13 | 1.23 | 1.01 | 1.09
0.00152 µM | 1.01 | 1.12 | 1.26 | 1 | 1.1
0.00457 µM | 0.984 | 1.11 | 1.23 | 1 | 1.07
0.01372 µM | 0.919 | 1.11 | 1.21 | 0.969 | 1.1
0.04115 µM | 0.825 | 1.11 | 1.21 | 0.99 | 1.09
0.1235 µM | 0.688 | 1.126 | 1.15 | 0.981 | 1.095
0.3704 µM | 0.561 | 1.11 | 1.18 | 0.949 | 1.09
1.111 µM | 0.504 | 1.12 | 1.19 | 0.92 | 1.11
3.333 µM | 0.49 | 1.12 | 1.12 | 0.882 | 1.12
10 µM | 0.385 | 1.13 | 1.11 | 0.798 | 1.14

CCOc1cc2ncc(C#N)c(Nc3ccc(OCc4ccccn4)c(Cl)c3)c2cc1NC(=O)/C=C/CN(C)C [Neratinib]
relative viability
Details | [1] | [2] | [3] | [4] | [5]
0.00017 µM | 0.957 | 1.042 | 1.16 | 1.03 | 1.05
0.00051 µM | 0.955 | 1.022 | 1.1 | 1.01 | 1.05
0.00152 µM | 0.938 | 1.022 | 1.11 | 0.999 | 1.028
0.00457 µM | 0.932 | 1.01 | 1.13 | 0.996 | 1.04
0.01372 µM | 0.931 | 1.04 | 1.16 | 0.997 | 1.047
0.04115 µM | 0.917 | 1.01 | 1.116 | 0.977 | 1.07
0.1235 µM | 0.875 | 1.05 | 1.06 | 0.938 | 1.08
0.3704 µM | 0.716 | 1.02 | 0.848 | 0.737 | 0.992
1.111 µM | 0.581 | 0.73 | 0.826 | 0.498 | 0.726
3.333 µM | 0.431 | 0.484 | 0.792 | 0.431 | 0.603
10 µM | -0.0166 | 0.486 | -0.0161 | 0.345 | 0.00637
